Data published in patent US12516052B2, “Methyltransferase 5 (PRMT5) inhibitors and methods of treatment” (THE TRUSTEES OF INDIANA UNIVERSITY, priority 2016, dated 2026).
“Also recorded” adds a separate entry of the source.

Key:
HT29 cells = assay: HT29 subcutaneous xenograft tumor efficacy study in NSG mice; assay type: in vivo; details: 20 mg/kg intraperitoneally 3×/week, vs vehicle control, n=4
Method: NSG (NOD scid gamma) mice were obtained from the In Vivo Therapeutics Core at Indiana University School of Medicine. After acclimation for 7 days, NSG mice (6-8 weeks old) were xenografted with mycoplasma-free PANC1 or HT29 cells subcutaneously (1×10^7 PANC1 or 3×10^6 HT29 cells used per mouse in 0.2 ml of a 1:1 mix of phosphate-buffered saline and MATRIGEL™) (BD Biosciences, San Jose, CA). Mice were randomized when tumor volumes reached about 100 mm^3. Mice were treated with either vehicle control or 20 mg/kg of compound (Ia) (drug stock dissolved in 1:1 CREMOPHOR™:ethanol solution) intraperitoneally 3 times per week. Tumor volumes and body weights were measured twice a week. The study was performed in accordance with the guidelines and standards of the Institutional Animal Care and Use Committee (IACUC). […] NSG (NOD scid gamma) mice were obtained from the In Vivo Therapeutics Core at Indiana University School of Medicine. After acclimation for 7 days, NSG mice (6-8 weeks old) were xenografted with mycoplasma-free PANC1 or HT29 cells subcutaneously (1×10^7 PANC1 or 3×10^6 HT29 cells used per mouse in 0.2 ml of a 1:1 mix of phosphate-buffered saline and MATRIGEL™) (BD Biosciences, San Jose, CA). Mice were randomized when tumor volumes reached about 100 mm^3. […] Tumor volumes and body weights were measured twice a week. […]

[1] = system: PDAC cells (PANC1, MiaPaCa2 and AsPC1); assay: MTT cell viability assay in PDAC cell lines; assay type: cell-based
Method: The PRMT5 inhibitory activity of the compounds from the screen was confirmed using both AlphaLISA and an MTT [(3-(4,5-dimethylthiazolyl-2)-2,5-diphenyltetrazolium bromide)] assay (PerkinElmer, Waltham, MA). For the MTT assay, cells were seeded at 90% confluence in 96-well plates and titrated with different dosages of compound (IIa) for 4 days. Media was then removed and 100 μl of MTT (Sigma-Aldrich, St. Louis, MO) was added per well. Cells were incubated for 2 hours at 37° C. before adding 100 μl of DMSO to each well and quantified with the SYNERGY™ H1 Multi-Mode Reader (BioTek Instruments Inc., Winooski, VT). The expression of PRMT5 was examined in pancreatic ductal adenocarcinoma cells at multiple stages of disease progression and in multiple colorectal cancer cell lines. Pancreatic control (HPNE) and cancer cell lines (PANC1, MiaPaCa2 and AsPC1) were grown in Dulbecco's Modified Eagle Medium (DMEM) (GE Healthcare, Little Chalfont, UK), supplemented with 1% of penicillin/streptomycin, 10% fetal bovine serum (FBS). Colon control (FHC) and cancer (HT29, HCT116, and DLD1) cell lines were maintained in RPMI 1640 Medium (Roswell Park Memorial Institute Medium) (GE Healthcare, Little Chalfont, UK), containing 1% penicillin/streptomycin and 10% FBS, while FHC cells were cultured under the same condition with further addition of 25 mM HEPES (4-(2-hydroxyethyl)-1-piperazineethanesulfonic acid), 10 ng/ml cholera toxin, 0.005 mg/ml insulin, 0.005 mg/ml transferring, and 100 ng/ml hydrocortisone. All cell lines were cultured at 37° C. under 5% CO2. The PDAC and CRC cell lines described above were treated with increasing concentrations of compound (IIa) or the commercially available PRMT5 inhibitor EPZ015666 [drawing 12] and quantified for cell viability using the MTT assay described above. […] A soft agar experiment was also performed to determine the effect of compound (IIa) on colony growth.

IC50 ([1]; range over PANC1, MiaPaCa2 and AsPC1): 2 to 4 µM
SMILES: Cc1ccc(Nc2nc(NCCN(C)C)nc3c2cnn3-c2ccccc2)cc1C [compound (IIa)]
tumor growth (tumor volume), HT29 xenograft (HT29 cells): significant tumor inhibition effect; also recorded: inhibition of tumor growth
cell viability in PDAC cells (PANC1, MiaPaCa2, AsPC1), MTT ([1]; increasing concentrations): decreased significantly
